Key:
Details in all cases: incubation time: 72 h
[1] = system: BT-474; experiment: normalised viability (% of control), CellTiter-Blue; higher = more viable cells (about 100 = DMSO control)
Outline: (§1)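 Vehicle (100) and a positive kill control (0) anchored the normalisation of each plate, and Z'-factor was used for quality control. Breast cancer cell lines in 20 µl suspension were incubated 72 h over compound in 5 µl medium in 384-well plates, followed by CellTiter-Blue at 560/590 nm. The value is normalised viability at a single listed concentration of the series.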

[2] = system: BT-549; experiment: as above
Outline: as §1

[3] = system: CAL-120; experiment: as above
Outline: as §1

[4] = system: CAL-51; experiment: as above
Outline: as §1

[5] = system: HCC1143; experiment: as above
Outline: as §1

[6] = system: HCC1599; experiment: as above
Outline: as §1

[7] = system: HCC1937; experiment: as above
Outline: as §1

[8] = system: MDA-MB-231; experiment: as above
Outline: as §1

[9] = system: MDA-MB-453; experiment: as above
Outline: as §1

[10] = system: MDA-MB-468; experiment: as above
Outline: as §1

[11] = system: MFM-223; experiment: as above
Outline: as §1

[12] = system: SK-BR-3; experiment: as above
Outline: as §1

[13] = system: BT-474; experiment: drug sensitivity score (DSS), CellTiter-Blue viability (DSS (AUC-based score)); higher = stronger viability inhibition; extreme values may be limits of the assay
Method: (§2)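 DSRT with the CellTiter-Blue (resazurin reduction) viability readout, fluorescence 560/590 nm, 72 h incubation. Plates were normalised to DMSO and benzethonium chloride controls. DSS is computed from the area under the fitted dose-response curve (5 or 9 concentrations).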

[14] = system: BT-549; experiment: as above
Method: as §2

[15] = system: CAL-51; experiment: as above
Method: as §2

[16] = system: DU-4475; experiment: as above
Method: as §2

[17] = system: HCC1143; experiment: as above
Method: as §2

[18] = system: HCC1599; experiment: as above
Method: as §2

[19] = system: HDQ-P1; experiment: as above
Method: as §2

[20] = system: Hs578T; experiment: as above
Method: as §2

[21] = system: MDA-MB-231; experiment: as above
Method: as §2

[22] = system: MDA-MB-453; experiment: as above
Method: as §2

[23] = system: MDA-MB-468; experiment: as above
Method: as §2

[24] = system: SK-BR-3; experiment: as above
Method: as §2

COc1cc2c(Oc3ccc(NC(=O)C4(C(=O)Nc5ccc(F)cc5)CC4)cc3F)ccnc2cc1OCCCN1CCOCC1 [Foretinib]
normalised viability [%]
Details | 0.3 nM | 1 nM | 3 nM | 10 nM | 100 nM | 1000 nM
[1] | – | 102 | – | – | 117 | 84.3
[2] | – | 79 | – | – | 101 | 72
[3] | – | 88.3 | – | – | 95.4 | 41.8
[4] | 99.1 | – | 88.6 | 95.2 | – | –
[5] | – | 104 | – | – | 103 | 82.8
[6] | – | 77.2 | – | – | 89.9 | 72.6
[7] | – | 80.8 | – | – | 91.3 | 64.9
[8] | – | 97.8 | – | – | 113 | 50.6
[9] | 115 | – | 91.6 | 85.9 | – | –
[10] | – | 102 | – | – | 111 | 52.4
[11] | – | 102 | – | – | 58.5 | 35
[12] | – | 97.5 | – | – | 102 | 77.5

Details | drug sensitivity score
[13] | 0
[14] | 0
[15] | 4.07
[16] | 1.75
[17] | 0
[18] | 0
[19] | 4.98
[20] | 0.649
[21] | 0
[22] | 0
[23] | 0
[24] | 0.269

NC(=O)NO [Hydroxyurea]
normalised viability [%]
Details | 30 nM | 100 nM | 300 nM | 1000 nM | 10000 nM | 100000 nM
[1] | – | 110 | – | – | 111 | 110
[2] | – | 82.8 | – | – | 93.8 | 87
[3] | – | 113 | – | – | 95.4 | 101
[4] | 103 | – | 107 | 104 | – | –
[5] | – | 99.1 | – | – | 99.3 | 92.4
[6] | – | 107 | – | – | 87.4 | 95.9
[7] | – | 86.9 | – | – | 81.2 | 72.7
[8] | – | 113 | – | – | 98.8 | 93.2
[9] | 124 | – | 102 | 116 | – | –
[10] | – | 110 | – | – | 111 | 108
[11] | – | 105 | – | – | 98.8 | 116
[12] | – | 114 | – | – | 117 | 114

Details | drug sensitivity score
[13] | 0
[14] | 0
[15] | 0
[16] | 0
[17] | 0
[18] | 0
[19] | 0
[20] | 0
[21] | 0
[22] | 0
[23] | 0
[24] | 0

O=NN(CCCl)C(=O)NC1CCCCC1 [Lomustine]
normalised viability [%]
Details | 3 nM | 10 nM | 30 nM | 100 nM | 1000 nM | 10000 nM
[1] | – | 108 | – | – | 114 | 128
[2] | – | 84.4 | – | – | 86.6 | 84.6
[3] | – | 93.9 | – | – | 91.3 | 105
[4] | 110 | – | 109 | 110 | – | –
[5] | – | 89.3 | – | – | 90.5 | 89.5
[6] | – | 108 | – | – | 81.4 | 117
[7] | – | 92 | – | – | 90.4 | 96
[8] | – | 110 | – | – | 100 | 95.9
[9] | 120 | – | 102 | 94.7 | – | –
[10] | – | 100 | – | – | 98.1 | 95.6
[11] | – | 84.7 | – | – | 87.9 | 54.7
[12] | – | 97.3 | – | – | 125 | 96

Details | drug sensitivity score
[13] | 0
[14] | 0
[15] | 0
[16] | 0
[17] | 0
[18] | 0
[19] | 0
[20] | 0
[21] | 0
[22] | 0
[23] | 0
[24] | 0

O=C(O)CC[C@H]1CC[C@@](c2cc(F)ccc2F)(S(=O)(=O)c2ccc(Cl)cc2)CC1 [MK-0752]
normalised viability [%]
Details | 0.3 nM | 1 nM | 3 nM | 10 nM | 100 nM | 1000 nM
[1] | – | 121 | – | – | 128 | 134
[2] | – | 93.4 | – | – | 80.3 | 99.1
[3] | – | 90.2 | – | – | 97.2 | 95.7
[4] | 106 | – | 101 | 98.8 | – | –
[5] | – | 81.5 | – | – | 108 | 89.4
[6] | – | 98.2 | – | – | 81.8 | 74.7
[7] | – | 96 | – | – | 86.9 | 92.1
[8] | – | 97.7 | – | – | 92.5 | 89.7
[9] | 113 | – | 107 | 125 | – | –
[10] | – | 98.9 | – | – | 94.9 | 110
[11] | – | 103 | – | – | 94.3 | 97.9
[12] | – | 106 | – | – | 105 | 111

Details | drug sensitivity score
[13] | 0
[14] | 0
[15] | 0
[16] | 0
[17] | 0
[18] | 2.93
[19] | 0
[20] | 0
[21] | 0
[22] | 0
[23] | 0
[24] | 0

NC1(c2ccc(-c3nc4ccn5c(=O)[nH]nc5c4cc3-c3ccccc3)cc2)CCC1 [MK-2206]
normalised viability [%]
Details | 0.3 nM | 1 nM | 3 nM | 10 nM | 100 nM | 1000 nM
[1] | – | 115 | – | – | 92.3 | 54
[2] | – | 101 | – | – | 106 | 85.3
[3] | – | 111 | – | – | 106 | 79.2
[4] | 104 | – | 101 | 99.6 | – | –
[5] | – | 105 | – | – | 108 | 87.7
[6] | – | 98.8 | – | – | 95.7 | 62.3
[7] | – | 87.4 | – | – | 98.5 | 104
[8] | – | 127 | – | – | 95.9 | 104
[9] | 112 | – | 95.2 | 96.6 | – | –
[10] | – | 108 | – | – | 90.7 | 72.9
[11] | – | 109 | – | – | 96.8 | 19.8
[12] | – | 107 | – | – | 76.2 | 42.1

Details | drug sensitivity score
[13] | 3.69
[14] | 0
[15] | 1.04
[16] | 0
[17] | 0
[18] | 0
[19] | 0
[20] | 0
[21] | 0
[22] | 4.04
[23] | 2.36
[24] | 6.38

NC(=O)c1cccc2cn(-c3ccc([C@@H]4CCCNC4)cc3)nc12 [MK-4827]
normalised viability [%]
Details | 3 nM | 10 nM | 30 nM | 100 nM | 1000 nM | 10000 nM
[1] | – | 119 | – | – | 100 | 92.7
[2] | – | 79.1 | – | – | 93.3 | 72.4
[3] | – | 81 | – | – | 76.9 | 71.1
[4] | 112 | – | 105 | 104 | – | –
[5] | – | 88.9 | – | – | 85 | 64.6
[6] | – | 93.4 | – | – | 116 | 93.3
[7] | – | 55.2 | – | – | 70.5 | 38.3
[8] | – | 94 | – | – | 90.7 | 62.2
[9] | 116 | – | 90.8 | 93.3 | – | –
[10] | – | 101 | – | – | 89 | 50.4
[11] | – | 92.4 | – | – | 96.4 | 111
[12] | – | 95.9 | – | – | 95.2 | 74.9

Details | drug sensitivity score
[13] | 0
[14] | 0
[15] | 5.3
[16] | 6.73
[17] | 3.49
[18] | 0
[19] | 0
[20] | 0
[21] | 0
[22] | 0
[23] | 0
[24] | 0

N[C@@H](Cc1ccc(N(CCCl)CCCl)cc1)C(=O)O [Melphalan]
normalised viability [%]
Details | 0.297 nM | 0.99 nM | 2.97 nM | 9.9 nM | 99 nM | 990 nM
[1] | – | 99.9 | – | – | 98 | 99.1
[2] | – | 92.7 | – | – | 115 | 89.3
[3] | – | 74.3 | – | – | 71.6 | 64.3
[4] | 105 | – | 102 | 107 | – | –
[5] | – | 67.8 | – | – | 70.3 | 67.8
[6] | – | 102 | – | – | 82.1 | 90.7
[7] | – | 89 | – | – | 64.2 | 39.5
[8] | – | 91.1 | – | – | 97.7 | 91.5
[9] | 105 | – | 101 | 102 | – | –
[10] | – | 95.7 | – | – | 99.7 | 63
[11] | – | 90 | – | – | 84.7 | 99.3
[12] | – | 94.6 | – | – | 98.8 | 50.6

Details | drug sensitivity score
[13] | 0
[14] | 0
[15] | 0
[16] | 0
[17] | 0
[18] | 0
[19] | 0
[20] | 3.68
[21] | 0
[22] | 0
[23] | 0
[24] | 0

Reference: the supplement of paper PMC4862054
